Assay results from patent US11873298B2, “Compounds and uses thereof” (JANSSEN PHARMACEUTICA NV, priority 2017, dated 2024).

Experiments:
[1] = molecular target: T1, SCD5 (Homo sapiens, UniProt Q86SK9); assay: Growth inhibition of humanized yeast strain expressing SCD5 as sole desaturase; format: cell-based
T1 construct: host or cells: S. cerevisiae ole1Δ strain (W303 pdr1Δ pdr3Δ background), plasmid pRS316 with TDH3 promoter and CYC1 terminator
T1 sequence (Q86SK9 1-330): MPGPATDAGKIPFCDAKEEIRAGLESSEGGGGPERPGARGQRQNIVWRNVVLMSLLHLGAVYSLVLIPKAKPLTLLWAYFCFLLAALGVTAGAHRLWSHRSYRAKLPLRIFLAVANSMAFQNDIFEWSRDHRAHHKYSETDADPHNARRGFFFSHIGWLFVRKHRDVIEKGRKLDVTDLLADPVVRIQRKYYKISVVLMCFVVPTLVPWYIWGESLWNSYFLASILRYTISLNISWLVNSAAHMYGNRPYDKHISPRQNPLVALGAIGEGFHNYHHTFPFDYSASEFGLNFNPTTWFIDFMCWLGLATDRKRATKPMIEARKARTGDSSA
In short: (§1)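 Plasmid-complemented ole1Δ yeast, drug-pump deleted (pdr1Δ pdr3Δ), depend solely on the introduced Ole1, SCD1 or SCD5 desaturase. Compounds are added from DMSO to cells in uracil-free galactose medium, 2× density 0.02, and OD600 is read after 24 h or 40 h respectively.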

[2] = molecular target: T2, SCD1 (Homo sapiens, UniProt O00767); assay: Growth inhibition of humanized yeast strain expressing SCD1 as sole desaturase; format: cell-based
T2 construct: host or cells: S. cerevisiae ole1Δ strain (W303 pdr1Δ pdr3Δ background), plasmid pRS316 with TDH3 promoter and CYC1 terminator
T2 sequence (O00767 1-359): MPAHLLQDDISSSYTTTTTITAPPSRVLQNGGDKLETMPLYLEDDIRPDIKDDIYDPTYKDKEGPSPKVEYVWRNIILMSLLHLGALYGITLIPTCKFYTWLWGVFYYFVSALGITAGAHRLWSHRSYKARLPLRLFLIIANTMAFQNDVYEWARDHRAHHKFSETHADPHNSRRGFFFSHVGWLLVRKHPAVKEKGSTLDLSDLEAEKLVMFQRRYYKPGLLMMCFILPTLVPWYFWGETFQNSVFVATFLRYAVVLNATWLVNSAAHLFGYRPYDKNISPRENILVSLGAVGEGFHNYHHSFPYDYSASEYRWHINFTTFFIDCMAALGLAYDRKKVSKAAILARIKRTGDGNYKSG
In short: as §1

[3] = growth inhibition of humanized yeast strain expressing human SCD5
[4] = growth inhibition of humanized yeast strain expressing human SCD1
[5] = humanized yeast strain expressing SCD5
[6] = humanized yeast strain expressing SCD1

Structure (SMILES) | IC50 ([1]; humanized yeast strain, 40 h) [µM] | IC50 ([2]; humanized yeast strain, 40 h) [µM] | further results
O=C(OC1CC1)N1CCN(c2nc(-c3ccc4cnn(C5COC5)c4c3)no2)CC1 [Compound 642] | – | – | IC50 [1, 3]: 0.211 µM; IC50 [2, 4]: > 45 µM
CC(C)n1ncc2ccc(-c3noc(C4CCN(C(=O)N5CCC5(C)C)CC4)n3)cc21 [Compound 684] | – | – | IC50 [1, 3]: > 45 µM; IC50 [2, 4]: > 45 µM
CC(C)n1ncc2ccc(-c3noc(N4CCN(C(=O)c5ccccc5Cl)CC4)n3)cc21 [Compound 364] | – | – | IC50 [1, 5]: > 45 µM; SCD5 % Max Inhibition [1, 5]: 2.22%; SCD1 % Max Inhibition [2, 6]: 70.82%
CC(C)(C)OC(=O)N1CCC(c2noc(-c3cc(N4CCOCC4)ccc3F)n2)CC1 [Compound 1156] | 0.493 | > 45 | –
O=C(N1CCC(c2noc(-c3ccc4cnn(C5COC5)c4c3)n2)CC1)C1(F)CCC1 [Compound 1029] | 0.01 | > 45 | –
CC(C)C(=O)N1CCC(c2nc(-c3ccc(N4CCOCC4)cc3)no2)CC1 [Compound 1165] | > 45 | > 45 | –
O=C(CC1CC1)N1CCN(c2noc(-c3ccc4cnn(C5COC5)c4c3)n2)CC(F)(F)C1 [Compound 1035] | 0.265 | > 45 | –
CC(C)N1C(=O)Cc2ccc(-c3noc(C4CCN(C(=O)CC5(C)CC5)CC4)n3)cc21 [Compound 626] | – | – | IC50 [1, 3]: 2.75 µM; IC50 [2, 4]: > 45 µM
CC(C)(C)OC(=O)N1CCC(c2noc(-c3ccc4cnn(C5CCOC5)c4c3)n2)CC1 (centres unmarked) [Compound 817] | 0.01 | 4.13 | –
Cc1noc(N2CCN(c3nc(-c4ccc5cnn(C(C)C)c5c4)no3)CC2)n1 [Compound 657] | – | – | IC50 [1, 3]: 9.11 µM; IC50 [2, 4]: > 45 µM
CC(C)(C)OC(=O)N1CCN(c2nc(-c3cccc(C4CCOC4)c3)no2)CC1 (centres unmarked) [Compound 829] | 2.2 | > 45 | –
COC(=O)N1CCC(F)(c2nc(-c3ccc4cnn(C(C)C)c4c3)no2)CC1 [Compound 622] | – | – | IC50 [1, 3]: 1.61 µM; IC50 [2, 4]: > 45 µM
COC(=O)N1CCN(c2noc(-c3ccnc(NC4COC4)c3)n2)CC1 [Compound 947] | > 45 | > 45 | –
COCC(C)(C)n1ncc2ccc(-c3noc(N4CCN(C(=O)OC(C)(C)C)CC4)n3)cc21 [Compound 788] | 6.22 | > 45 | –
CC(C)(C)OC(=O)N1CCC(c2nc(-c3ccc4cnn(C5CCC5)c4c3)no2)CC1 [Compound 730] | – | – | IC50 [1, 3]: 0.718 µM; IC50 [2, 4]: > 45 µM
CC(C)(C)OC(=O)N1CCC(c2noc(-c3ccn(C4COC4)c(=O)c3)n2)CC1 [Compound 1121] | 15.5 | > 45 | –
CC(C)C(=O)N1CCC(c2noc(-c3ccnc(N4CCC(F)(F)C4)c3)n2)CC1 [Compound 1170] | 0.402 | > 45 | –
CC(C)(C)OC(=O)N1CCC(c2nc(-c3ccc4cnn([C@@H]5CCOC5)c4c3)no2)CC1 [Compound 792] | 0.01 | 8.83 | –
CC(C)n1ncc2ccc(-c3noc(C4CCNCC4(F)F)n3)cc21 (centres unmarked) [Compound 508] | – | – | IC50 [1, 5]: > 45 µM; IC50 [2, 6]: > 45 µM
CC(C)(C)CC(=O)N1CCC(c2nc(-c3ccc4cnn(C5(C)COC5)c4c3)no2)CC1 [Compound 807] | 0.247 | > 45 | –
CC(C)n1ncc2ccc(-c3noc(C4CCN(C(=O)C5CCCN5C)CC4)n3)cc21 (centres unmarked) [Compound 706] | – | – | IC50 [1, 3]: > 45 µM; IC50 [2, 4]: > 45 µM
O=C(C1CCC1)N1CCC(c2noc(-c3ccc4oc(=O)n(C5COC5)c4c3)n2)CC1 [Compound 1127] | 1.47 | > 45 | –
CC1(OC(=O)N2CCC(c3noc(-c4ccnc([C@@H]5CCOC5)c4)n3)CC2)CC1 [Compound 1137] | 0.0522 | > 45 | –
Cc1nn(C)c2cc(-c3noc(C4CCN(c5nc6ccccc6o5)CC4)n3)ccc12 [Compound 514] | – | – | IC50 [1, 5]: > 45 µM; IC50 [2, 6]: > 45 µM

Structure (SMILES) | IC50 ([1]; humanized yeast strain, 40 h) [µM] | IC50 ([2]; humanized yeast strain, 40 h) [µM] | further results
CCC1(C(=O)N2CCC(c3noc(-c4ccc5cnn(C6COC6)c5c4)n3)CC2)CC1 [Compound 964] | 0.03 | 0.31 | –
O=C(C1CC1)N1CCC(c2noc(-c3ccc4cnn(C5COC5)c4c3)n2)CC1 [Compound 887] | 0.01 | > 45 | –
CC(C)(C)OC(=O)N1CCC(c2noc(-c3ccc4oc(=O)n(C5COC5)c4c3)n2)CC1 [Compound 1005] | 0.01 | > 45 | –
CC(C)(C)CC(=O)N1CCC(c2nc(-c3cccc(C4CCOC4)c3)no2)CC1 (centres unmarked) [Compound 782] | 0.149 | > 45 | –
O=C(OC1CC1)N1CCC(c2noc(-c3cc(F)c4cnn(C5COC5)c4c3)n2)CC1 [Compound 1071] | 0.00303 | > 45 | –
O=C(C1CC1)N1CCC(c2noc(-c3cc(F)c4cnn(C5COC5)c4c3)n2)CC1 [Compound 1067] | 0.00498 | > 45 | –
CC(CF)n1ncc2ccc(-c3noc(C4CCN(C(=O)CC5(C)CC5)CC4)n3)cc21 (centres unmarked) [Compound 585] | – | – | IC50 [1, 5]: 1.81 µM; IC50 [2, 6]: > 45 µM
C[C@@H]1C[C@@H](c2noc(-c3ccc4cnn(C5COC5)c4c3)n2)CCN1C(=O)C1(F)CC1 [Compound 1065] | 0.000386 | > 45 | –
CC(C)(C)OC(=O)N1CCC(c2noc(-c3cccc([C@@H]4CCOC4)c3)n2)CC1 [Compound 795] | 0.01 | > 45 | –
CC(C)(C)OC(=O)N1CCN(c2noc(-c3ccnc(N4CCOCC4)c3)n2)CC1 [Compound 943] | > 45 | > 45 | –
CC(C)(C)OC(=O)N1CC(c2noc(-c3ccc4cnn(C5COC5)c4c3)n2)C1 [Compound 926] | > 45 | > 45 | –
O=C(C1CC1)N1CCC(c2noc(-c3ccnc(Cl)c3)n2)CC1 [Compound 1123] | 6.64 | > 45 | –
COC(=O)N1CCN(c2noc(-c3cccc(OC4COC4)c3)n2)CC1 [Compound 1013] | 0.367 | > 45 | –
COC(=O)N1CCC(c2noc(-c3ccn4cnc(C(C)C)c4c3)n2)CC1 [Compound 1045] | 0.935 | ≥ 45 | –
CCOC(=O)N1CCC(c2nc(-c3ccc4cnn(C(C)C)c4c3)no2)CC1 [Compound 361] | – | – | IC50 [1, 5]: > 45 µM; SCD5 % Max Inhibition [1, 5]: 0.95%; SCD1 % Max Inhibition [2, 6]: 67.22%
CC(C)n1ncc2ccc(-c3noc(C4CCN(C(=O)CNC(=O)c5ccccc5)CC4(F)F)n3)cc21 (centres unmarked) [Compound 519] | – | – | IC50 [1, 5]: > 45 µM; IC50 [2, 6]: > 45 µM
CC(C)n1ncc2ccc(-c3noc(C4CCN(C(=O)N5CCCC5C#N)CC4)n3)cc21 (centres unmarked) [Compound 666] | – | – | IC50 [1, 3]: > 45 µM; IC50 [2, 4]: > 45 µM
COC(=O)N1CC[C@H](c2noc(-c3ccc4cnn(C5COC5)c4c3)n2)C[C@H]1C [Compound 1059] | 0.00223 | > 45 | –
CCC(=O)N1CCN(c2noc(-c3ccnc(NC4COC4)c3)n2)CC1 [Compound 978] | > 45 | > 45 | –
CC(=O)N1CC(n2ncc3ccc(-c4nc(N5CCNCC5)no4)cc32)C1 [Compound 937] | > 45 | > 45 | –
CC(C)n1ncc2ccc(-c3noc(C4CCN(S(=O)(=O)C5CCCCC5)CC4)n3)cc21 [Compound 673] | – | – | IC50 [1, 3]: 33.8 µM; IC50 [2, 4]: > 45 µM
CC(C)n1nc(CO)c2ccc(-c3noc(C4CCN(C(=O)OC(C)(C)C)CC4)n3)cc21 [Compound 781] | 4.8 | > 45 | –
O=C(C1CC1)N1CCN(c2noc(-c3ccc4cnn(C5COC5)c4c3)n2)CC1 [Compound 844] | 0.015 | > 45 | –
COC(=O)N1CCC(c2nc(-c3ccc4cnn([C@@H]5CCOC5)c4c3)no2)CC1 [Compound 907] | 0.04 | > 45 | –
